Experimental data reported in patent US20260256756A1, “USE OF PIPERIDINE ALKENE COMPOUND IN PREPARATION OF DRUG FOR TREATING CANCER” (JIANGSU HANSOH PHARMACEUTICAL GROUP CO., LTD., priority 2023, published 2026).

Tested on: human pancreatic cancer cell line Capan-1 xenograft tumor
Assay: Subcutaneous xenograft tumor model of human pancreatic cancer cell line Capan-1
Type: in vivo, BALB/c nude mice
Details: Capan-1, 100 mg/kg oral once/day
Source text: • 1. Experimental objective: To evaluate the in vivo efficacy of compound 1 in a subcutaneous xenograft tumor model of human pancreatic cancer cell line Capan-1 in nude mice. • 2. Reagent • IMDM medium (30-2005, ATCC) and fetal bovine serum (FBS) (35-081-CV, Corning) • DPBS (21-031-CVR, Corning) and Matrigel (354234, Corning) • HPMC (H02J10D78204, Shanghai Yuanye Bio-Technology Co., Ltd.) • Trypsin-EDTA (25200-072, Gibco), penicillin and streptomycin (MA0110, Dalian Meilun Biotechnology Co., Ltd.) • 3. Experimental operations and data processing • 3.1 Animals: • BALB/c nude mice, 6-8 weeks old, female, purchased from Jiangsu GemPharmatech Co., Ltd. • 3.2 Cell culture and cell suspension preparation • a. A vial of Capan-1 cells was taken from a cell bank, the cells were thawed with IMDM medium (IMDM+20% FBS), and the thawed cells were placed in a cell culture flask (with the cell type, date, the name of the culture operator, etc., being marked on the wall of the flask), which were placed in a CO2 incubator for culturing (wherein the temperature of the incubator was 37° C., and the CO2 concentration was 5%). • b. The cells were passaged once a week, and after passage, the cells were placed in the CO2 incubator to continue the culture. This process was repeated until the cell number met the requirements for in vivo efficacy. • c. The cultured cells were collected, counted using a full-automatic cell counter, and resuspended with PBS on the basis of the counting results to prepare a cell suspension (at a density of 5×10^7/mL). An equal volume of Matrigel was added to the cell suspension, and the resulting mixture was mixed uniformly and then placed in an ice box for later use. • 3.3 Cell inoculation • a. Before inoculation, the nude mice were marked with disposable universal ear tags for mice and rats. • b. At the time of inoculation, the cell suspension was mixed uniformly, 0.2-1 mL of the cell suspension was aspirated using a 1 mL syringe with air bubbles expelled, and the syringe was then placed on an ice bag for later use. • c. […] Tumor was measured on days 4-7 after inoculation depending on the tumor growth, and the tumor size was calculated.
tumor volume (mm^3)=length (mm)×width (mm)×width (mm)/2 Tumor volume calculation: • b. […] The tumor inhibitory efficacy of the compound was evaluated by TGI (%) and ΔT/ΔC (%). ΔT/ΔC (%)=(T−T0)/(C−C0)×100, where T and C are the tumor volumes of the treatment group and the vehicle control group at the end of the experiment, respectively, and T0 and C0 are the tumor volumes of the treatment group and the vehicle control group at the beginning of the experiment, respectively. […]

O=C(c1cc(Cc2n[nH]c(=O)c3ccccc23)ccc1F)N1CCN(C(=O)C2CC2)CC1 [Olaparib]
Tumor volume (Mean ± SEM) (Day 0): 164 ± 13 mm^3
T/C (Day 28): 86.27%
TGI (Day 28): 14.39%
Tumor volume (Mean ± SEM) (Day 28): 724 ± 82 mm^3
